# In patent US20190160035A1, “METHOD OF TREATMENT” (QBIOTICS LIMITED, priority 2016, published 2019):
# Key:
# [1] = test system: MCT (cutaneous and subcutaneous); test: Example 7: treatment of MCT (repeat of Example 1), complete response and healing by time point; format: in vivo, dogs; conditions: for Complete response: Cumulative % / Complete response: Number of tumors on given study day: 11 treated tumors in 10 dogs; for Healing: Cumulative % / Healing: Number of tumor sites healed on given study day: 11 treated tumors
# Experimental: The study of Example 1 was repeated. The drug used was Compound 1 formulated in 40% propylene glycol and 30 MM acetate buffer at pH 4.2.
# While tumor evaluation and measurement data for 11 cases are presented, this actually represents only 10 dogs, one of which had two tumors treated consecutively (identified as cases SI-01 and SI-02). PK sampling was performed only once for this dog (SI-01).
# Of the other ten tumors, nine were considered CR by day 7 (+2) and one was CR by day 14 (+2). The investigator also reported that all of these tumors remained a CR on day 28 […].
# Healing was more variable for the cases, with one healed at the day 14 visit and over half the tumor sites healed by the day 28 visit. The two cases with the largest tumor volumes at day 0 (SI-04 5.6 cm^3, and SI-11 6.8 cm^3) required healing time beyond the day 28 visit, i.e., an additional four weeks for SI-04 and an additional 19.7 weeks for SI-11. For SI-11, it was noted the dog was licking the tumor site and the investigator felt it may have prolonged the healing time. The investigator believed the wound required intervention on this case that included debridement once on study day 56 followed by periodic bandage replacement.
# [2] = Example 2: body weights, clinical examinations and adverse events (VCOG-CTCAE); format: in vivo, dogs; parameters: key to Local swelling at treatment site: VCOG-CTCAE Grade classification / Pain associated with treatment site: VCOG-CTCAE Grade classification / Transient tachypnoea: VCOG-CTCAE Grade classification / Transient lethargy: VCOG-CTCAE Grade classification / Transient tachycardia: VCOG-CTCAE Grade classification / Transient elevated blood pressure reading: VCOG-CTCAE Grade classification / Transient salivation: VCOG-CTCAE Grade classification / Emesis: VCOG-CTCAE Grade classification / Wound sinus: VCOG-CTCAE Grade classification: ‘mild’ VCOG-CTCAE classification Grade 1 with no intervention required
# Experimental: Body weights were collected on each enrolled dog at screening, immediately pre-treatment, at approximately 24 hours, 48 hours post-treatment, and at 7(+1) days, 14(+1) days and 21(+2) days post treatment. The percent bodyweight change is calculated as the difference between immediate pre-treatment and Day 21 (+2) post-treatment values. A positive value indicates weight gain, a negative value indicates weight loss.
# Clinical parameters such as rectal temperature (° C.), heart rate (HR) per minute, respiratory rate (RR) per minute, capillary refill time (CRT) (sec), systolic and diastolic blood pressure (mmHg), and mucosal colour were collected on each enrolled dog at screening, immediately pre-treatment, at approximately 24 hours, 48 hours post-treatment, and at 7(±1), 14(±1) and 21(±2) days post treatment. With each parameter evaluated for trends over time, and in context with all other contemporaneously collected parameters, the clinical parameter data is deemed unremarkable for all trial dogs.
# Dogs were evaluated for adverse events (AEs) on Days 0 (pre-treatment), 1, 2, 7(±1), 14(±1) and 21(±2) as well as interim timepoints if needed. An AE was defined as any unfavorable and unintended sign, symptom, or disease temporally associated with the use of Compound 1, whether or not related to the product (VCOG-CTCAE 2011).
# [3] = cohort 3, 0.2 mg/mL, out of 7 dogs
structure (smiles),measurement,setting,value
"C/C=C(\C)C(=O)O[C@@H]1[C@@H](C)[C@@]2(O)[C@H]([C@@H]3C(C)(C)[C@]13OC(=O)[C@@H](C)CC)[C@@H]1O[C@]1(CO)[C@@H](O)[C@]1(O)C(=O)C(C)=C[C@H]12 [Compound 1, 12-tigloyl-13-(2-methylbutanoyl)-6,7-epoxy-4,5,9,12,13,20-hexahydroxy-1-tigliaen-3-one]",Response of the five cases with leakage of IVP upon injection,"[1]; SI-01, SI-02, SI-04, SI-05, SI-10, on or before the day 14 visit",complete response
same,Complete response: Cumulative %,[1]; Study day 7 (+2),82%
same,Complete response: Number of tumors on given study day,[1]; Study day 7 (+2),9
same,Healing: Cumulative %,[1]; Study day 14 (+2),9%
same,Healing: Number of tumor sites healed on given study day,[1]; Study day 14 (+2),1
same,Complete response: Cumulative %,[1]; Study day 14 (+2),91%
same,Complete response: Number of tumors on given study day,[1]; Study day 14 (+2),1
same,Healing: Cumulative %,[1]; Study day 28 (+4),55%
same,Healing: Number of tumor sites healed on given study day,[1]; Study day 28 (+4),5
same,Healing: Cumulative %,[1]; Study day 33,64%
same,Healing: Number of tumor sites healed on given study day,[1]; Study day 33,1
same,Healing: Cumulative %,[1]; Study day 42,73%
same,Healing: Number of tumor sites healed on given study day,[1]; Study day 42,1
same,Healing: Cumulative %,[1]; Study day 56,82%
same,Healing: Number of tumor sites healed on given study day,[1]; Study day 56,1
same,Healing: Cumulative %,[1]; Study day 166,91%
same,Healing: Number of tumor sites healed on given study day,[1]; Study day 166,1
same,Change of tumor volumes after drug treatment,[1]; all tumors with the exception of SI-03,decreased in size
same,Course of MCT despite drug treatment,"[1]; case SI-03, withdrawn after day 28 visit",continued to enlarge
same,Additional healing time beyond the day 28 visit,"[1]; case SI-11, tumor volume 6.8 cm^3 at day 0, dog licking site, debridement day 56",19.7 weeks
same,Status of the ten responding tumors on day 28 (+4),[1]; investigator report,remained a CR
same,Number of tumors with a complete response (CR) during the study,[1]; of 11 tumors,Ten
same,Percent of tumors with a complete response (CR) during the study,[1]; of 11 tumors,90.9%
same,Number of tumors considered CR by day 7 (+2),[1]; of ten responding tumors,nine
same,Number of tumors CR by day 14 (+2),"[1]; of ten responding tumors, not CR by day 7",one
same,Number of cases healed at the day 14 visit,[1]; tumor site healing,one
same,Share of tumor sites healed by the day 28 visit,[1]; tumor site healing,over half
same,Pain associated with treatment site: Incidence (%),"[2]; Grade 1, all patients (n = 27)",14.8%
same,Pain associated with treatment site: No. of events,"[2]; Grade 1, all patients (n = 27)",4
same,Pain associated with treatment site (oral analgesic): Incidence (%),"[2]; Grade 2, all patients (n = 27)",22.2%
same,Pain associated with treatment site (oral analgesic): No. of events,"[2]; Grade 2, all patients (n = 27)",6
same,Bilateral otitis externa (oral antibiotic): Incidence (%),[2]; all patients (n = 27),3.7%
same,Bilateral otitis externa (oral antibiotic): No. of events,[2]; all patients (n = 27),1
same,Bilateral otitis externa (oral antibiotic): VCOG-CTCAE Grade classification,[2]; all patients (n = 27),2
same,Corneal ulcer (antibiotic ointment and oral analgesic): Incidence (%),[2]; all patients (n = 27),3.7%
same,Corneal ulcer (antibiotic ointment and oral analgesic): No. of events,[2]; all patients (n = 27),1
same,Corneal ulcer (antibiotic ointment and oral analgesic): VCOG-CTCAE Grade classification,[2]; all patients (n = 27),2
same,Emesis: Incidence (%),[2]; all patients (n = 27),7.4%
same,Emesis: No. of events,[2]; all patients (n = 27),2
same,Emesis: VCOG-CTCAE Grade classification,[2]; all patients (n = 27),1
same,Flatulence (oral antibiotic): Incidence (%),[2]; all patients (n = 27),3.7%
same,Flatulence (oral antibiotic): No. of events,[2]; all patients (n = 27),1
same,Flatulence (oral antibiotic): VCOG-CTCAE Grade classification,[2]; all patients (n = 27),2
same,Local swelling at treatment site: Incidence (%),[2]; all patients (n = 27),81.5%
same,Local swelling at treatment site: No. of events,[2]; all patients (n = 27),22
same,Local swelling at treatment site: VCOG-CTCAE Grade classification,[2]; all patients (n = 27),1
same,Number of AEs of ‘mild’ VCOG-CTCAE Grade 1 (no intervention required),[2]; all patients (n = 27),52
same,Number of AEs requiring minimal medical intervention or additional analgesic therapy,[2]; all patients (n = 27),12
same,Pain associated with treatment site (oral analgesic): VCOG-CTCAE Grade classification,[2]; all patients (n = 27),2
same,Seborrhoea (oral antibiotic): Incidence (%),[2]; all patients (n = 27),3.7%
same,Seborrhoea (oral antibiotic): No. of events,[2]; all patients (n = 27),1
same,Seborrhoea (oral antibiotic): VCOG-CTCAE Grade classification,[2]; all patients (n = 27),2
same,Transient elevated blood pressure reading: Incidence (%),[2]; all patients (n = 27),3.7%
same,Transient elevated blood pressure reading: No. of events,[2]; all patients (n = 27),1
same,Transient elevated blood pressure reading: VCOG-CTCAE Grade classification,[2]; all patients (n = 27),1
same,Transient lethargy: Incidence (%),[2]; all patients (n = 27),18.5%
same,Transient lethargy: No. of events,[2]; all patients (n = 27),5
same,Transient lethargy: VCOG-CTCAE Grade classification,[2]; all patients (n = 27),1
same,Transient salivation: Incidence (%),[2]; all patients (n = 27),3.7%
same,Transient salivation: No. of events,[2]; all patients (n = 27),1
same,Transient salivation: VCOG-CTCAE Grade classification,[2]; all patients (n = 27),1
same,Transient tachycardia: Incidence (%),[2]; all patients (n = 27),7.4%
same,Transient tachycardia: No. of events,[2]; all patients (n = 27),2
same,Transient tachycardia: VCOG-CTCAE Grade classification,[2]; all patients (n = 27),1
same,Transient tachypnoea: Incidence (%),[2]; all patients (n = 27),51.9%
same,Transient tachypnoea: No. of events,[2]; all patients (n = 27),14
same,Transient tachypnoea: VCOG-CTCAE Grade classification,[2]; all patients (n = 27),1
same,Wound infection (oral antibiotic): Incidence (%),[2]; all patients (n = 27),7.4%
same,Wound infection (oral antibiotic): No. of events,[2]; all patients (n = 27),2
same,Wound infection (oral antibiotic): VCOG-CTCAE Grade classification,[2]; all patients (n = 27),2
same,Wound sinus: Incidence (%),[2]; all patients (n = 27),3.7%
same,Wound sinus: No. of events,[2]; all patients (n = 27),1
same,Wound sinus: VCOG-CTCAE Grade classification,[2]; all patients (n = 27),1
same,Total number of AEs identified,"[2]; all patients (n = 27), 15 event types",64
same,"Clinical parameter data (temperature, HR, RR, CRT, blood pressure, mucosal colour)","[2]; all trial dogs, screening to Day 21",unremarkable
same,Number of dogs that lost weight,"[2]; cohort 1, 1.0 mg/mL",3
same,Number of dogs that gained weight during the trial,"[2]; cohort 1, 1.0 mg/mL, out of 10 dogs, pre-treatment to Day 21",6
same,Largest recorded weight loss,"[2]; cohort 1, dog NVC-103",3.9%
same,Number of dogs that lost body weight,"[2]; cohort 2, 0.5 mg/mL, out of 10 dogs",9
same,Largest recorded weight loss,"[2]; cohort 2, dog GCV-204",5.6%
same,Number of dogs that gained weight,[2]; [3],3
same,Number of dogs that lost weight,[2]; [3],4
same,Largest recorded weight loss,"[2]; cohort 3, dog NVC-304",9.2%
same,Body weight gain,"[2]; dog NVC-102, cohort 1",15%
same,Pain associated with treatment site: VCOG-CTCAE Grade classification,"[2]; no intervention, all patients (n = 27)",1
